# Laboratory results taken from BindingDB's records for doi:10.1021/jm980707k (University of Alabama At Birmingham, 1999).
# Assay: In vitro inhibitory activity against H1N9 Influenza A Neuraminidase.
row,Structure (SMILES),IC50
1,CCC(CC)Nc1cc(C(=O)O)ccc1N1CCCC1=O [3-(1-Ethyl-propylamino)-4-(2-oxo-pyrrolidin-1-yl)-benzoic acid],222 µM
2,"NC(N)=Nc1cc(C(=O)O)ccc1N1C(=O)CCC1(CO)CO [4-(2,2-Bis-hydroxymethyl-5-oxo-pyrrolidin-1-yl)-3-guanidino-benzoic acid]",5 µM
3,"O=C(O)c1ccc(N2C(=O)CCC2(CO)CO)cc1 [4-(2,2-Bis-hydroxymethyl-5-oxo-pyrrolidin-1-yl)-benzoic acid anion]",760 µM
4,NCC1CCC(=O)N1c1ccc(C(=O)O)cc1N=C(N)N (stereo unspecified) [4-(2-Aminomethyl-5-oxo-pyrrolidin-1-yl)-3-guanidino-benzoic acid],2600 µM
5,"CCC(CC)Nc1cc(C(=O)O)ccc1N1C(=O)CCC1(CO)CO [4-[2,2-bis(hydroxymethyl)-5-oxopyrrolidin-1-yl]-3-[(1-ethylpropyl)amino]benzoic acid]",0.048 µM
6,"CC(=O)N[C@@H]1[C@@H]([C@H](O)[C@H](O)CO)O[C@](O)(C(=O)O)C[C@H]1O [(2S,4R,5S,6S)-5-Acetylamino-2,4-dihydroxy-6-((1R,2R)-1,2,3-trihydroxy-propyl)-tetrahydro-pyran-2-carboxylic acid]",10 µM
